Data taken from publication PMC2154353 (The Journal of General Physiology, 2007).

What was measured:
[1] = molecular target: T1, MEC-4 homomeric channel (A713wt), coexpressed with MEC-2 (Caenorhabditis elegans, UniProt P24612, A713T); assay: two-electrode voltage clamp, oocytes, dose-response of current block; assay type: cell-based
T1 sequence (P24612 1-768 A713T): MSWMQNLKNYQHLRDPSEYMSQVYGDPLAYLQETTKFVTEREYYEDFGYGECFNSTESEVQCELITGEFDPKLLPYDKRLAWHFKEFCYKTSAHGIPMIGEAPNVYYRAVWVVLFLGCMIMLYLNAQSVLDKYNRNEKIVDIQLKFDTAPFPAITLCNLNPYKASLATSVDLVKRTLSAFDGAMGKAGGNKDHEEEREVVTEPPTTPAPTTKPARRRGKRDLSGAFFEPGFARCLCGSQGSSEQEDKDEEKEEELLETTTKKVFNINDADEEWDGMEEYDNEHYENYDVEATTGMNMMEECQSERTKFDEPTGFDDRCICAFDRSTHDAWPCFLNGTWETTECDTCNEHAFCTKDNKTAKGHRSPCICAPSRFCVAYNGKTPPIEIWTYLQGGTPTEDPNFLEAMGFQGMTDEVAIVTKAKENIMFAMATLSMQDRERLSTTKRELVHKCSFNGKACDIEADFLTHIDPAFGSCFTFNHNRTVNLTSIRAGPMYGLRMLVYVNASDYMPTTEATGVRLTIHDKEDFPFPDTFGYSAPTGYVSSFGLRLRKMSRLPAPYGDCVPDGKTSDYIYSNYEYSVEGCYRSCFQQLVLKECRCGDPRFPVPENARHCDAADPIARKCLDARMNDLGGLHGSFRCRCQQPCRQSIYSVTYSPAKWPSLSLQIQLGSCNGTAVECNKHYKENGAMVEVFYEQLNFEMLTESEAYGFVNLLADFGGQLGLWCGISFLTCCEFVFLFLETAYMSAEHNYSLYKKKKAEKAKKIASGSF
T1 sequence (Q27433 1-481 partner): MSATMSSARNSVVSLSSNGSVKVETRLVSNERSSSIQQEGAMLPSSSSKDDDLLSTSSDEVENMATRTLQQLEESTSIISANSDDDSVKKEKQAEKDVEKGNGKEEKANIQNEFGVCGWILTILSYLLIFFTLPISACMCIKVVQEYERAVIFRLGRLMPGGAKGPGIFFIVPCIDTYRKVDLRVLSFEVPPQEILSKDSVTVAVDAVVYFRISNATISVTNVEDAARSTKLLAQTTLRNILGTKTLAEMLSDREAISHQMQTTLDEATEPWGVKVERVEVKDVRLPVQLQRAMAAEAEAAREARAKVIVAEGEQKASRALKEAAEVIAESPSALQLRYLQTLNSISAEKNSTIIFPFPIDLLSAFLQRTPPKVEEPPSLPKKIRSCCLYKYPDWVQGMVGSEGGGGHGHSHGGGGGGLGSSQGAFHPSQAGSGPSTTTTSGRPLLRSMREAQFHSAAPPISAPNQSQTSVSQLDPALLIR

[2] = molecular target: T2, MEC-4 homomeric channel (A713wt), coexpressed with MEC-2 (Caenorhabditis elegans, UniProt P24612); assay: as above; assay type: cell-based
T2 sequence (P24612 1-768): T1 sequence (P24612 1-768 A713T)
T2 sequence (Q27433 1-481 partner): T1 sequence (Q27433 1-481 partner)

Ki [1] [µM]	Ki [2] [µM]	SMILES
196 ± 40	108 ± 3	N=C(N)c1ccccc1 [benzamidine]
0.83 ± 0.14	0.15 ± 0.01	NC(=NCc1ccccc1)NC(=O)c1nc(Cl)c(N)nc1N [benzamil]
